Results from patent publication US12371454B2, “Cyclic peptide compound having Kras inhibitory action” (priority 2019, dated 2025).
Starred links: 1 amine or outer side, 2 acyl side, 3 side chain; linkers in the order of their positions; H or OH if unused. Positions of bridges follow the written chain, without caps; N, C: chain ends. Non-standard residues stand in square brackets, D forms with d. Residues, ends and D or L forms follow the SMILES beside them. *: point of attachment. hPhe(3-Cl-4-CF3) = N[C@@H](CCc1ccc(C(F)(F)F)c(Cl)c1)C(=O)O; NMePhe(4-Cl) = CN[C@@H](Cc1ccc(Cl)cc1)C(=O)O; NMePhe(4-Me) = CN[C@@H](Cc1ccc(C)cc1)C(=O)O; hPhe(3-Cl) = N[C@@H](CCc1cccc(Cl)c1)C(=O)O; NMedβ3hAla = C[C@H](CC(=O)[*:2])N(C)[*:1]; NMeGly(cPent) = CN[C@H](C(=O)O)C1CCCC1; Phe(3-I) = N[C@@H](Cc1cccc(I)c1)C(=O)O; Pro(4,4-F2) = O=C(O)[C@@H]1CC(F)(F)CN1; NMeCha = CN[C@@H](CC1CCCCC1)C(=O)O; Azetidine(3,3-F2) = FC1(F)CN(*)C1; NMeChg = CN[C@H](C(=O)O)C1CCCCC1; NMeI = CC[C@H](C)[C@H](NC)C(=O)O; NMeD = CN[C@@H](CC(=O)O)C(=O)O; NMeL = CN[C@@H](CC(C)C)C(=O)O; NMeV = CN[C@H](C(=O)O)C(C)C; d(β3hA) = C[C@@H](N)CC(=O)O; NMeA = CN[C@@H](C)C(=O)O; NMeAib = CNC(C)(C)C(=O)O; Piperidide = C1CCN(*)CC1; Pra = C#CC[C@H](N)C(=O)O; Ac5c = NC1(C(=O)O)CCCC1; Aze = O=C(O)[C@@H]1CCN1; Abu = CC[C@H](N)C(=O)O; Ac4c = NC1(C(=O)O)CCC1; Nleu = CC(C)CNCC(=O)O; Sar = CNCC(=O)O

The compounds below were run against T1, Kras and SOS1 (biotin-tagged human Kras loaded with GDP, His-tagged human SOS1) (Homo sapiens, UniProt P01116, G12D) (assay: Protein-protein interaction inhibition between Kras and SOS1 (KrasGl2D-SOS PPI) using AlphaScreen). Conditions: AlphaScreen; biotin-tagged human Kras loaded with GDP, His-tagged human SOS1; read-out: KRAS G12D-SOS PPI IC50.
T1 construct: made in house; host or cells: E. coli (stated for Kras only)
Type: binding
In short: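 Read-out is acceptor-bead light at 520-620 nm, arising when 680 nm-irradiated nickel donor beads pass singlet oxygen to streptavidin acceptors. The bead pair links His-tagged SOS1 with biotin-tagged, GDP-bound Kras from E. coli.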

T1 sequence (P01116 1-188 isoform P01116-2 G12D): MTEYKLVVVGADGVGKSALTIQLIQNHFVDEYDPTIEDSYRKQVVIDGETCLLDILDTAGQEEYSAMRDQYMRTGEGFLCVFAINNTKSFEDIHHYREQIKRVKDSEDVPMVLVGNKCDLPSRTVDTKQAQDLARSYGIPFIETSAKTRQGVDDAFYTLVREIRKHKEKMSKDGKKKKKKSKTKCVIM

| Compound | IC50 [nM] |
| --- | --- |
| C#CC[C@@H]1NC(=O)[C@H](CC(C)C)N(C)C(=O)C[C@@H](C(=O)N2CCCCC2)N(C)C(=O)[C@H](C2CCCCC2)N(C)C(=O)C2(CCCC2)NC(=O)[C@@H]2CCCN2C(=O)[C@H](CCc2ccc(C(F)(F)F)c(Cl)c2)NC(=O)CN(C)C(=O)[C@H](CC2CCCCC2)N(C)C(=O)CN(C)C(=O)CN(C)C1=O [Compound 716] ([NMeL][Pra][Sar][Sar][NMeCha][Sar][hPhe(3-Cl-4-CF3)]P[Ac5c][NMeChg][NMeD]-Piperidide; lactam N-11) | 1.1 |
| CC[C@H](C)[C@@H]1NC(=O)[C@H](CC(C)C)N(C)C(=O)C[C@@H](C)N(C)C(=O)[C@H]([C@@H](C)CC)N(C)C(=O)C2(CCC2)NC(=O)[C@@H]2CC(F)(F)CN2C(=O)[C@H](CCc2ccc(C(F)(F)F)c(Cl)c2)NC(=O)CN(C)C(=O)[C@H](Cc2ccc(C)cc2)N(C)C(=O)CN(C)C(=O)CN(C)C1=O [Compound 869] (cyclo([Ac4c][NMeI][NMedβ3hAla][NMeL]I[Sar][Sar][NMePhe(4-Me)][Sar][hPhe(3-Cl-4-CF3)][Pro(4,4-F2)])) | 9.8 |
| CC[C@H](C)[C@@H]1NC(=O)[C@H](C)N(C)C(=O)C[C@@H](C(=O)N2CCCCC2)N(C)C(=O)[C@H](C2CCCCC2)N(C)C(=O)C2(CCCC2)NC(=O)[C@@H]2CCCN2C(=O)[C@H](CCc2cccc(Cl)c2)NC(=O)CN(C)C(=O)[C@H](CC2CCCCC2)N(C)C(=O)CN(C)C(=O)CN(C)C1=O [Compound 954] ([NMeA]I[Sar][Sar][NMeCha][Sar][hPhe(3-Cl)]P[Ac5c][NMeChg][NMeD]-Piperidide; lactam N-11) | 1.9 |
| CC[C@@H]1NC(=O)[C@H](Cc2cccc(I)c2)NC(=O)CN(C)C(=O)[C@H](Cc2ccc(Cl)cc2)N(C)C(=O)CN(C)C(=O)CN(C)C(=O)[C@H]([C@@H](C)CC)NC(=O)[C@H](CC(C)C)N(C)C(=O)C[C@@H](C(=O)N2CCCCC2)N(C)C(=O)[C@H](CC(C)C)NC(=O)C(C)(C)N(C)C1=O [Compound 457] ([NMeL]I[Sar][Sar][NMePhe(4-Cl)][Sar][Phe(3-I)][Abu][NMeAib]L[NMeD]-Piperidide; lactam N-11) | 69 |
| CC[C@H](C)[C@@H]1NC(=O)[C@H](CC(C)C)N(C)C(=O)C[C@@H](C(=O)N2CCCCC2)N(C)C(=O)[C@H](C(C)C)N(C)C(=O)C2(CCCC2)NC(=O)[C@H](C)N(C)C(=O)[C@H](CCc2ccc(C(F)(F)F)c(Cl)c2)NC(=O)CN(C)C(=O)[C@H](CC2CCCCC2)N(C)C(=O)[C@@H]2CCN2C(=O)[C@H](C)N(C)C1=O [Compound 1243] ([NMeL]I[NMeA][Aze][NMeCha][Sar][hPhe(3-Cl-4-CF3)][NMeA][Ac5c][NMeV][NMeD]-Piperidide; lactam N-11) | 27 |
| CC[C@H](C)[C@@H]1NC(=O)[C@H](CC(C)C)N(C)C(=O)C[C@@H](C)N(C)C(=O)[C@H](CC(C)C)NC(=O)C(C)(C)N(C)C(=O)[C@H](CC(C)C)NC(=O)[C@H](CCc2ccc(C(F)(F)F)c(Cl)c2)NC(=O)CN(C)C(=O)[C@H](CC2CCCCC2)N(C)C(=O)[C@@H]2CCN2C(=O)CN(C)C1=O [Compound 57] (cyclo([Aze][NMeCha][Sar][hPhe(3-Cl-4-CF3)]L[NMeAib]L[NMedβ3hAla][NMeL]I[Sar])) | 16 |
| CC[C@H](C)[C@@H]1NC(=O)[C@H](CC(C)C)N(C)C(=O)C[C@@H](C)NC(=O)[C@H](C(C)C)N(C)C(=O)C2(CCCC2)NC(=O)[C@@H]2CCCN2C(=O)[C@H](CCc2ccc(C(F)(F)F)c(Cl)c2)NC(=O)CN(C)C(=O)[C@H](CC2CCCCC2)N(C)C(=O)CN(C)C(=O)[C@@H]2CCN2C1=O [Compound 1020] (cyclo([Ac5c][NMeV][d(β3hA)][NMeL]I[Aze][Sar][NMeCha][Sar][hPhe(3-Cl-4-CF3)]P)) | 51 |
| CC[C@H](C)[C@@H]1NC(=O)[C@H](CC(C)C)N(C)C(=O)C[C@@H](C(=O)N(C)C)N(C)C(=O)[C@H](C2CCCC2)N(C)C(=O)C2(CCCC2)NC(=O)[C@H](CC(=O)N2CC(F)(F)C2)N(C)C(=O)[C@H](CCc2ccc(C(F)(F)F)c(Cl)c2)NC(=O)CN(C)C(=O)[C@H](CC2CCCCC2)N(C)C(=O)[C@@H]2CCN2C(=O)[C@H](C)N(C)C1=O [Compound 761] ([NMeL]I[NMeA][Aze][NMeCha][Sar][hPhe(3-Cl-4-CF3)][NMeD](Azetidine(3,3-F2))[Ac5c][NMeGly(cPent)][NMeD]-NMe2; lactam N-11) | 0.57 |
| CC[C@H](C)[C@@H]1NC(=O)[C@H](CC(C)C)N(C)C(=O)C[C@@H](C)NC(=O)[C@H](C(C)C)N(C)C(=O)C2(CCCC2)NC(=O)[C@@H]2CCCN2C(=O)[C@H](CCc2ccc(C(F)(F)F)c(Cl)c2)NC(=O)CN(C)C(=O)[C@H](CC2CCCCC2)N(C)C(=O)CN(C)C(=O)CN(CC(C)C)C1=O [Compound 970] (cyclo([Ac5c][NMeV][d(β3hA)][NMeL]I[Nleu][Sar][NMeCha][Sar][hPhe(3-Cl-4-CF3)]P)) | 250 |
